Targets include PAK2 (human) (UniProt Q13177); RPS6KB1 (human) (UniProt P23443); INSR (human) (UniProt P06213); ABL1 (human) (UniProt P00519); SGK1 (human) (UniProt O00141); MAP3K7 (human) (UniProt O43318); MAP4K4 (human) (UniProt O95819); AKT1 (human) (UniProt P31749); IGF1R (human) (UniProt P08069); KDR (human) (UniProt P35968); MARK1 (human) (UniProt Q9P0L2); PIM2 (human) (UniProt Q9P1W9); DYRK1A (human) (UniProt Q13627); MET (human) (UniProt P08581); PRKG1 (human) (UniProt Q13976); FGFR1 (human) (UniProt P11362); CAMK4 (human) (UniProt Q16566); MAPKAPK5 (human) (UniProt Q8IW41); CHEK1 (human) (UniProt O14757).

What all share (details): compound 10.0 µM
For assay [1], the target named is CAMK2A or CAMK2B or CAMK2D or CAMK2G (human) (UniProt Q13555+Q13557+Q9UQM7+Q13554).
Sequence of CAMK2A or CAMK2B or CAMK2D or CAMK2G (human) (Q13554 whole entry, looked up): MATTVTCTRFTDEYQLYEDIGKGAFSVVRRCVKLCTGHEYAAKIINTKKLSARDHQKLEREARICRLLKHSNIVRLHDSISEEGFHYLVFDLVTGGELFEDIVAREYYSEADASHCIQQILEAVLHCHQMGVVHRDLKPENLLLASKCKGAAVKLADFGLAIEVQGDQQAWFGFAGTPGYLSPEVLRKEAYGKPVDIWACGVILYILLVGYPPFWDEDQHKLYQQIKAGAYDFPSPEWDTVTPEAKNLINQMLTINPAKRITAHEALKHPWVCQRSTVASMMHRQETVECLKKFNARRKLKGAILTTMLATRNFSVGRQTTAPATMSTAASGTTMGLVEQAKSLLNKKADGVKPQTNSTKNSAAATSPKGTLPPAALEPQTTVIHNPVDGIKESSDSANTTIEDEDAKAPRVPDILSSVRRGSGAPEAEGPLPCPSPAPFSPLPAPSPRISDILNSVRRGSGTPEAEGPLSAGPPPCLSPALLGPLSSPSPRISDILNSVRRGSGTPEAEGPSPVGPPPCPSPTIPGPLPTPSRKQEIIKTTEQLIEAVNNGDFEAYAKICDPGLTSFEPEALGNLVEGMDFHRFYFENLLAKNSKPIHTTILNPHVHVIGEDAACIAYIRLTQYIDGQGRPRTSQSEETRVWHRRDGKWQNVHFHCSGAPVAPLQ
Sequence of CAMK2A or CAMK2B or CAMK2D or CAMK2G (human) (Q13555 whole entry, looked up): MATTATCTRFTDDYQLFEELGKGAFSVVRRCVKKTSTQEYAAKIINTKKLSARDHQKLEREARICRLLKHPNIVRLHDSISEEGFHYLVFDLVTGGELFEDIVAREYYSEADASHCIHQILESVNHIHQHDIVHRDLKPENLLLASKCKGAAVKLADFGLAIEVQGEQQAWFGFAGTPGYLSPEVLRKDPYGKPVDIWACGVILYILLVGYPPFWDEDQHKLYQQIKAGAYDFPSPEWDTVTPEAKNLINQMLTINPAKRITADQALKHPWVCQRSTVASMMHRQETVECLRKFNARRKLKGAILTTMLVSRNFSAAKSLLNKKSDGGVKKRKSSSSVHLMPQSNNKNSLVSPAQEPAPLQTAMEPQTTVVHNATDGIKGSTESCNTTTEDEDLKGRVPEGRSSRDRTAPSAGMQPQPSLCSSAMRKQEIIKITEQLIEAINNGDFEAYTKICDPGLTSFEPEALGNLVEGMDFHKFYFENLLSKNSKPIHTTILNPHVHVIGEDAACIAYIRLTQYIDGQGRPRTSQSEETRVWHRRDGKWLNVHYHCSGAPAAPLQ
Sequence of CAMK2A or CAMK2B or CAMK2D or CAMK2G (human) (Q13557 whole entry, looked up): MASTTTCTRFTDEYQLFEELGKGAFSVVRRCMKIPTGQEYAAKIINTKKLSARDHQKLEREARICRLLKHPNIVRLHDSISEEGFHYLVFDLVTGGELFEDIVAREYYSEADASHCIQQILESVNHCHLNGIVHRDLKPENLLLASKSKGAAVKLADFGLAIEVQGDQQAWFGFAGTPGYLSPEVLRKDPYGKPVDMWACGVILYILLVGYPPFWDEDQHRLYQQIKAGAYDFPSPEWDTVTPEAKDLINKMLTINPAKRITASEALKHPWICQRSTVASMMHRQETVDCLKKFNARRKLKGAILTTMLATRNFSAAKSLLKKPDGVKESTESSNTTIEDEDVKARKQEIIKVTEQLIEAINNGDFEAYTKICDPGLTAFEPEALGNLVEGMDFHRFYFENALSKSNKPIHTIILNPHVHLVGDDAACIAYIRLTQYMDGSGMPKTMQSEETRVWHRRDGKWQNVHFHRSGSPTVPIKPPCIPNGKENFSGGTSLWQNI
Sequence of CAMK2A or CAMK2B or CAMK2D or CAMK2G (human) (Q9UQM7 whole entry, looked up): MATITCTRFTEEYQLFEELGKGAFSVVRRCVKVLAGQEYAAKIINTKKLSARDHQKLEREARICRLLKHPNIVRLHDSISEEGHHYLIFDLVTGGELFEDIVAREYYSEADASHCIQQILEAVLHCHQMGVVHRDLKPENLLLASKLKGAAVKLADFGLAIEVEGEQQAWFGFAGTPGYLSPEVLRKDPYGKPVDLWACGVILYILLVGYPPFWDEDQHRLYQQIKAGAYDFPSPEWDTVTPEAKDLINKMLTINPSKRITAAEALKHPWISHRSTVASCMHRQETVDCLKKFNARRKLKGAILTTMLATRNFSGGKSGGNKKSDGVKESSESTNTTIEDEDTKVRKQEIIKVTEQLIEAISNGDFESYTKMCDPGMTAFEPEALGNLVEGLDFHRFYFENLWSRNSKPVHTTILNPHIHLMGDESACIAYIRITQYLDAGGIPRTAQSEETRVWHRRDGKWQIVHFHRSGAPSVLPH

Sequence of RPS6KB1 (human) (P23443 whole entry, looked up): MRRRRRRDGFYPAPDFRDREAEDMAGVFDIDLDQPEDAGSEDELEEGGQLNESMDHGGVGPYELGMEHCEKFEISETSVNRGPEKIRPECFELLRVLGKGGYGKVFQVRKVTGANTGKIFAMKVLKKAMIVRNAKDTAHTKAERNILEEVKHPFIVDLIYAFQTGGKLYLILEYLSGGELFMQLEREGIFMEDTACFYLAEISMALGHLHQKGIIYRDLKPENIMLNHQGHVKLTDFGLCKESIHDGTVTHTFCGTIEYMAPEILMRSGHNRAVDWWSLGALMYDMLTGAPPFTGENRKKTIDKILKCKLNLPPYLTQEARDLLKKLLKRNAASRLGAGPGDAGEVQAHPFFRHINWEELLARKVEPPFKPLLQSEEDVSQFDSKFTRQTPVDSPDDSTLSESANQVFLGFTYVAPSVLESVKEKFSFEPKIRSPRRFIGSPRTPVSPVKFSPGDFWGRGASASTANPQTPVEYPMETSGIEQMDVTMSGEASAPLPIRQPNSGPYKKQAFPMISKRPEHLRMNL
Sequence of MAP3K7 (human) (O43318 whole entry, looked up): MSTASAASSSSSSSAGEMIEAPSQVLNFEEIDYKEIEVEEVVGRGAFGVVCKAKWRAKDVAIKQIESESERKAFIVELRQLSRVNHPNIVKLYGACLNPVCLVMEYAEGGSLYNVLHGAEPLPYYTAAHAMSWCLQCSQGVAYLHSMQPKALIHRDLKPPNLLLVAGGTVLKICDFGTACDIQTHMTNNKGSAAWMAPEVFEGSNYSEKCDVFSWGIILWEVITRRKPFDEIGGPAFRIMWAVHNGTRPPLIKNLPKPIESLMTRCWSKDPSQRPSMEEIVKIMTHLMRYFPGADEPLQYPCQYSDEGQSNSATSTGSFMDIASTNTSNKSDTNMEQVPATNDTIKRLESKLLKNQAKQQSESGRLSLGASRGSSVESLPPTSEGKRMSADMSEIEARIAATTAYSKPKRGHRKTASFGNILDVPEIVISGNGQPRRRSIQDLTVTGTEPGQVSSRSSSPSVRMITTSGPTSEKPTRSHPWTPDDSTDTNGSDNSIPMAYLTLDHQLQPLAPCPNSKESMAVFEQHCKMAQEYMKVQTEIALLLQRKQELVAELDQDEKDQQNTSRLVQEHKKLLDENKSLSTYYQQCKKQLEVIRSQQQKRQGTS
Sequence of PRKG1 (human) (Q13976 whole entry, looked up): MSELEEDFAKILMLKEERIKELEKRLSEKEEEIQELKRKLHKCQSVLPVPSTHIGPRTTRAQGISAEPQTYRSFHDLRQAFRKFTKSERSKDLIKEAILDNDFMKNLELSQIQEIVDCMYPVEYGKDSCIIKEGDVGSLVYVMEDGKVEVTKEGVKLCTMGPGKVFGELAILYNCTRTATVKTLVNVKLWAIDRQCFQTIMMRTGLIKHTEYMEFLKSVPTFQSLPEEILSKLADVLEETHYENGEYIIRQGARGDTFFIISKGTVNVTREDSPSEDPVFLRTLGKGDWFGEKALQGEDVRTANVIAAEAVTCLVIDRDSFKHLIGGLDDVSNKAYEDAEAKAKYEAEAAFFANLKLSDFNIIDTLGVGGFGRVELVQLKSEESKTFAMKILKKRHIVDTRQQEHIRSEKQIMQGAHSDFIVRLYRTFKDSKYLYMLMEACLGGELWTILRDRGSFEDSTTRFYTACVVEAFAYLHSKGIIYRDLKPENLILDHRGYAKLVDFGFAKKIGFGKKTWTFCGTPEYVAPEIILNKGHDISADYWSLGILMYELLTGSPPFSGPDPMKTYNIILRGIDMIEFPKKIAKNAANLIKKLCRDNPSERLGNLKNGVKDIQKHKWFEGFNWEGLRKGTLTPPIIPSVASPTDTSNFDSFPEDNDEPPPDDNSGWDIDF
Sequence of CAMK4 (human) (Q16566 whole entry, looked up): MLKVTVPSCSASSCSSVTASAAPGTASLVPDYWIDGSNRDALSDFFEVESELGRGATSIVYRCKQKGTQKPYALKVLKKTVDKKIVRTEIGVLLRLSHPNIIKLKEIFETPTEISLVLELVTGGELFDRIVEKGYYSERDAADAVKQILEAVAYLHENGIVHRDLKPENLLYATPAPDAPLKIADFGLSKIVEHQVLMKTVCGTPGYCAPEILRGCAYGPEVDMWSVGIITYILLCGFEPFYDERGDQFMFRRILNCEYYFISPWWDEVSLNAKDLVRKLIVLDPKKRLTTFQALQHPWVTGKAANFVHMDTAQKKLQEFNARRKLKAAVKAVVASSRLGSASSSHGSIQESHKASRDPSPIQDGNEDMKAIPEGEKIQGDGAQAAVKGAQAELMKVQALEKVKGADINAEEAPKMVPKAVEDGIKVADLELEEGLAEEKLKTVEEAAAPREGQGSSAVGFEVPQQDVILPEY
Sequence of PIM2 (human) (Q9P1W9 whole entry, looked up): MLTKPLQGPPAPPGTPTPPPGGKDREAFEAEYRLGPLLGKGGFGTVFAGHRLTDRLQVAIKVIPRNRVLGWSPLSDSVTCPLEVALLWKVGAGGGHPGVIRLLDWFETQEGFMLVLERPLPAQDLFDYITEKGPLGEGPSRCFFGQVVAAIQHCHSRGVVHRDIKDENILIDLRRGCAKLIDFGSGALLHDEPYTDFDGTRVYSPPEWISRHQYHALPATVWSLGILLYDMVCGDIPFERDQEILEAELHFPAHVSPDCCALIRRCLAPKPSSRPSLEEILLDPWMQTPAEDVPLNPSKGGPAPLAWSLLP

The inhibition is the change of the read-out against control, counted positive when it falls. On to `CC[C@@H](NC(=O)c1c[nH]c2ncc(-c3nn(C)c4cc(Cl)ccc34)nc12)C(=O)N1CC(C#N)C1`, for which the inhibition in assay [1] is -35%; against PAK2 (human), -29%; against RPS6KB1 (human) it was -12%; at INSR (human), -11%.
Turning to `C[C@@H](NC(=O)c1c[nH]c2ncc(-c3nn(C)c4cc(Cl)ccc34)nc12)C(=O)N1CC(C#N)C1`, the inhibition in assay [1] was -179%; against ABL1 (human), -13%; at SGK1 (human), -17%; on MAP3K7 (human), -24%; on MAP4K4 (human) it was -17%; at AKT1 (human), -11%. Besides, the inhibition was -12% against IGF1R (human); -18% against KDR (human); -11% at MARK1 (human); -12% against RPS6KB1 (human); -15% on PIM2 (human); -13% against DYRK1A (human). The inhibition on MET (human) was -15%; against PRKG1 (human), 0%; at FGFR1 (human), -11%; against CAMK4 (human), -11%.
For the compound `C[C@@H](NC(=O)c1c[nH]c2ncc(-c3ncn4cc(F)cc(F)c34)nc12)C(=O)N1CC(C#N)C1`, the inhibition in assay [1] is -51%; against MAPKAPK5 (human), -12%; against RPS6KB1 (human), -42%; on PRKG1 (human) it was 0%.
On to `C[C@@H](NC(=O)c1c[nH]c2ncc(-c3cn(C)c4cc(Cl)ccc34)nc12)C(=O)N1CC(C#N)C1`, for which the inhibition in assay [1] is -53%; at RPS6KB1 (human), -14%; on PIM2 (human) it was -18%.
Regarding `C[C@@H](NC(=O)c1c[nH]c2ncc(-c3nn(C)c4cc(Cl)cc(F)c34)nc12)C(=O)N1CC(C#N)C1`, the inhibition in [1] is -52%; against MAP3K7 (human) it was -11%; against IGF1R (human), -30%; against RPS6KB1 (human) it was -33%; at CAMK4 (human), -24%; against CHEK1 (human) it was -28%.

The record behind these values is the kinase profiling compilation of Christmann-Franck et al. (2016).
